Reference: US20070004691A1, “Antitumoral combinations containing et-743 and a cruciferous and a cruciferous indole compound” (priority 2003, published 2007)

Experiments:
patients = conditions: prolonged infusion over 24-72 hr; cited from earlier work
female Wistar rats = test: Study of hepatotoxicity: protection against ET-743-induced liver damage; assay type: in vivo, rat
Method: I3C at 0.1 or 0.5% or di-indolyl methane (DIM) at 0.2% were added to the diet of female Wistar rats (230-260 g) seven days prior to treatment with a hepatotoxic dose of ET-743 (40 μg/kg, iv. via the lateral tail vein). This amount constitutes doses equivalent to approximately 80 and 400 mg/kg I3C per day. Control animals received the unaltered diet and/or water as the vehicle for ET-743. The dose of DIM was based on the following consideration: DIM is the product of the condensation of two molecules of I3C, therefore assuming all of the I3C in the 0.5% dose group dimerises to form DIM, the maximal amount of DIM which could theoretically be generated is half of the amount of I3C in the diet. Each treatment group comprised 4 animals. Hepatic changes were studied by assessment of alterations in plasma levels of bilirubin and liver enzymes ALP and aspartate aminotransferase (AST) and by conventional histopathological investigation of liver tissue.

13762 tumor = test: Study of antitumor activity: 13762 tumor fragments implanted sc; assay type: in vivo, rat; conditions: for tumor weight inhibition (TWI): day 20, I3C 0.5% in diet from implantation, ET-743 40 μg/kg i.v. on day 6, female Fischer rats, weight from caliper diameters; for decrease of terminal tumor weight: tumors excised and weighed at termination of the experiment (day 20), I3C 0.5% diet, ET-743 40 μg/kg i.v.
Method: (§1) 13762 tumor fragments (100-200 mg weight) were implanted (sc) into the flank of female Fischer rats (100-120 g). […] Properties of the 13762 tumour have previously been described for example in Braunschweiger P. G., and Schiffer L. M. 1980, J. Natl. Cancer Inst., 64: 671-674: “Growth kinetics of mammary tumor 13762 in rats previously cured by chemotherapy”. Tumor weight (TW) was calculated on each day via tumor diameters, using a Vernier caliper and the formula: TW (in mg)=tumor volume (mm3)=d^2×D/2, in which d and D represent the shortest and longest diameter, respectively. Rats (9-10 per group) received I3C in their diet (0.5%) from the day of tumor implantation to the end of the experiment. ET-743 (40 μg/kg, i.v.) was administered on day 6 post tumor implantation.

[1] = system: human tumour xenografts grown in athymic mice; conditions: including melanoma and ovarian and breast carcinoma; cited from earlier work
[2] = Study of ET-743 levels in liver and plasma (HPLC-ESI-MS/MS); assay type: in vivo, rat; conditions: for AUC of ET-743 in liver (0-24 h after dosing), mean: rat liver; for AUC of ET-743 in plasma (0-24 h after dosing), mean: rat plasma
Method: We tested the hypothesis that I3C pretreatment alters clearance of ET-743 from plasma and liver in vivo. Blood samples and liver tissue were collected from rats before and up to 24 h after administration of ET-743 (40 μg/kg iv.) with or without treatment with I3C (0.5% in the diet) given from 6 days prior to ET-743. Blood samples (by cardiac puncture) and liver tissue were collected before and at 0.5, 1, 3, 6, 12 and 24 h post treatment. Blood was placed in heparinized tubes, and plasma was obtained by centrifugation. An aliquot (0.3 ml) was mixed with 0.7 ml ammonium acetate buffer (0.2 M, pH 5.0). Liver tissue was homogenized (1:1) in water. Levels of ET-743 were measured by HPLC coupled to electrospray ionization tandem mass spectrometry in the plasma and liver samples.

[3] = system: mice, rats, dogs and monkeys; conditions: plasma liver-specific enzymes, cholangitis; cited from earlier work
female Fischer rats = test: Protection against pathological manifestations of ET-743 in the liver of tumor-bearing Fischer rats; assay type: in vivo; conditions: 0.5% dietary I3C, compared with Wistar rat
Method: as §1

rat livers = test: Hepatoprotection by modulators of drug metabolism against ET-743; conditions: compared with dexamethasone
female rat = conditions: high-dose dexamethasone pretreatment; cited from earlier work
[4] = ET-743 alone, 40 μg/kg iv, female Wistar rats
[5] = ET-743 40 μg/kg iv in combination with I3C (0.5% in the diet from 6 days prior)
[6] = I3C 0.1% in diet plus ET-743 40 μg/kg iv

For `COc1cc2c(cc1O)CCN[C@]21CS[C@@H]2c3c(OC(C)=O)c(C)c4c(c3[C@H](COC1=O)N1C2C2c3c(cc(C)c(OC)c3O)C[C@@H]([C@@H]1O)N2C)OCO4` (stereo partly shown) [ET-743, Ecteinascidin 743], the “side effects in patients” value (patients) is given as “myelotoxic and hepatotoxic”, the “activities of ALP and AST” value (female Wistar rats; [4]) is given as “elevated” and the “plasma levels of bilirubin” value (female Wistar rats; [4]) is given as “dramatically raised”. For the same compound, the liver pathology (female Wistar rats; ET-743 alone, 40 μg/kg iv, day 3 and day 9) was “severe bile duct damage on day 3 and biliary sclerosis on day 9”, the “tumor weight inhibition (TWI)” value (13762 tumor) was 62% and the “decrease of terminal tumor weight” value (13762 tumor) was 54%. The antineoplastic activity [1] was “potent”, the “AUC of ET-743 in liver (0-24 h after dosing), mean” value [2, 5] was 563 ngxh/ml and the “AUC of ET-743 in plasma (0-24 h after dosing), mean” value [2, 5] was 1.9 ngxh/ml. The “AUC of ET-743 in liver (0-24 h after dosing), mean” value ([2]; ET-743 alone, 40 μg/kg iv) was 280 ngxh/ml, the “AUC of ET-743 in plasma (0-24 h after dosing), mean” value ([2]; ET-743 alone, 40 μg/kg iv) was 4.7 ngxh/ml and the “side effect in preclinical acute toxicity studies” value [3] was “liver toxicity”.

In the case of `OCc1c[nH]c2ccccc12` [I3C, 1H-indole-3-methanol], the “plasma bilirubin levels compared to ET-743 alone” value (female Wistar rats; I3C 0.1% in diet (approx. 80 mg/kg per day) from seven days prior to ET-743 40 μg/kg iv) is reported as “moderately reduced”, the “AST and ALP activity compared with levels induced by ET-743 alone” value (female Wistar rats; [6]) is reported as “did not decrease” and the “pathological manifestations of liver damage compared to ET-743 only” value (female Wistar rats; [6]) is reported as “only marginally less severe”. For the same compound, the “protection as reflected by the biochemical indices” value (female Wistar rats; I3C 0.5% in diet (approx. 400 mg/kg per day) plus ET-743 40 μg/kg iv) was “complete”, the “protection adjudged on the basis of liver pathology” value (female Wistar rats; I3C 0.5% in diet plus ET-743 40 μg/kg iv, 3 and 9 days) was “substantial, albeit not complete” and the “weight of the animals or liver function (biochemical indices or pathology)” value (female Wistar rats; consumption of I3C on its own in the diet) was “did not affect”. The “tumor weight inhibition (TWI)” value (13762 tumor) was 35%, the “decrease of terminal tumor weight” value (13762 tumor) was 43% and the “protection against the pathological manifestations of ET-743 in the liver” value (female Fischer rats) was “same degree of protection”.

For `CC(=O)N[C@@H](CS)C(=O)O` [N-acetylcysteine], the “amelioration of ET-743 mediated hepatotoxicity” value (“amelioration” for short) (rat livers) was “failed to protect”.

For `C[C@@H]1C[C@H]2[C@@H]3CCC4=CC(=O)C=C[C@]4(C)[C@@]3(F)[C@@H](O)C[C@]2(C)[C@@]1(O)C(=O)CO` [dexamethasone], the “hepatic levels of ET-743 after pretreatment” value (female rat) is listed as “dramatic reduction”.

For `CCC1(c2ccccc2)C(=O)NC(=O)NC1=O` [phenobarbitone], the “amelioration” value (rat livers) was “weak”.

With `O=c1cc(-c2ccccc2)oc2ccc3ccccc3c12` [β-naphthoflavone] the “amelioration” value (rat livers) was “persisted only for a short term”.
